Test results: publication PMC5641092 (Oncotarget, 2017)
Where two headings read alike, the source gives them in different places. Residues, ends and D or L forms follow the SMILES beside them.

Assays:
[1] = Peptide stability in presence of fetal bovine serum (SDS-PAGE); type: in vitro ADME; settings: FBS 1:1 weight ratio, 37°C
Experimental: (§1) Peptide stability was tested in presence of bovine serum albumin (BSA, Sigma-Aldrich, Deisenhofen, Germany), fetal bovine serum (FBS, Gibco®), buffer pH 2 (30 mM citric acid/HCl, 60 mM NaCl), pH 10 (10 mM Tris/NaOH), and pepsin from porcine gastric mucosa (Sigma-Aldrich, Deisenhofen, Germany) in buffer pH 2. […] After the given time points aliquots were taken and diluted with electrophoresis loading buffer (2.5% SDS) heated for 5 minutes at 95°C and analyzed by SDS-gel electrophoreses (BioRad, Mini-PROTEAN Tetra System). As standard the Ultra-low Range Molecular Weight Marker M3546 (Sigma-Aldrich, Deisenhofen, Germany) was used. For analysis of binding to BSA after 7 days respective samples were taken and loaded on Amicon Ultra-0.5 ml Centrifugal Filters (Ultracel-10K) (Merck Millipore, Tullagreen, IRL). After centrifugation (14.000g, 30 minutes, 4°C) the filtrate was analyzed for amount of non-BSA-bound peptide by measurement of UV-absorbance of tryptophan at 280 nm. The filtrate (free) peptide amount was corrected with the peptide loss during the filtration process by a control experiment with defined peptide amount.

[2] = target: T1, bovine serum albumin (BSA) (Bos taurus, UniProt P02769); experiment: Peptide stability in presence of BSA (SDS-PAGE); type: in vitro ADME; settings: BSA 1:1 weight ratio, 37°C, 1, 6 and 7 days
T1 construct: purchased Sigma-Aldrich, Deisenhofen, Germany
T1 sequence (P02769 25-607): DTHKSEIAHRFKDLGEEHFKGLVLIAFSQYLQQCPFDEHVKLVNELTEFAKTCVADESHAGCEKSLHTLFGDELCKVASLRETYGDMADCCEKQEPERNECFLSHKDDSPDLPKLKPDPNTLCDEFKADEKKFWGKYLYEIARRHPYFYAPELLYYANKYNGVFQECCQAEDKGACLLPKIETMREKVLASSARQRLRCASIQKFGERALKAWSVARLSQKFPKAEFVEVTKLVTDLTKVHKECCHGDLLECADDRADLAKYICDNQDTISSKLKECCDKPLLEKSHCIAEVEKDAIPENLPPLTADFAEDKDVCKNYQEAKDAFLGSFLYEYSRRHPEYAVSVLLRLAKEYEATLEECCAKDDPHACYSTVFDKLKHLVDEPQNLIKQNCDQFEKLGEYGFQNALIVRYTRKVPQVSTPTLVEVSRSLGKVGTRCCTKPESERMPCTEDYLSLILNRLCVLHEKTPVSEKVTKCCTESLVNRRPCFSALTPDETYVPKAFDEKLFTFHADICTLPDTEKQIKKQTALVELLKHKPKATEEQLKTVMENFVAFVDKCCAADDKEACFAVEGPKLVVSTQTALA
Experimental: (§2) Peptide stability was tested in presence of bovine serum albumin (BSA, Sigma-Aldrich, Deisenhofen, Germany), fetal bovine serum (FBS, Gibco®), buffer pH 2 (30 mM citric acid/HCl, 60 mM NaCl), pH 10 (10 mM Tris/NaOH), and pepsin from porcine gastric mucosa (Sigma-Aldrich, Deisenhofen, Germany) in buffer pH 2. Therefore peptide samples were incubated in presence of 1:1 weight ratios (10:1 in presence of pepsin) with the mentioned components or in presence of buffer (pH 2 or 10) for 1 day, 6 days and 7 days at 37°C. After the given time points aliquots were taken and diluted with electrophoresis loading buffer (2.5% SDS) heated for 5 minutes at 95°C and analyzed by SDS-gel electrophoreses (BioRad, Mini-PROTEAN Tetra System). As standard the Ultra-low Range Molecular Weight Marker M3546 (Sigma-Aldrich, Deisenhofen, Germany) was used. For analysis of binding to BSA after 7 days respective samples were taken and loaded on Amicon Ultra-0.5 ml Centrifugal Filters (Ultracel-10K) (Merck Millipore, Tullagreen, IRL). After centrifugation (14.000g, 30 minutes, 4°C) the filtrate was analyzed for amount of non-BSA-bound peptide by measurement of UV-absorbance of tryptophan at 280 nm. The filtrate (free) peptide amount was corrected with the peptide loss during the filtration process by a control experiment with defined peptide amount.

[3] = target: T1, bovine serum albumin (BSA); experiment: Binding to BSA (centrifugal filtration, UV 280 nm); settings: after 7 days of incubation at 37°C, Amicon Ultracel-10K filtration, corrected for filtration loss
Experimental: as §2

[4] = target: T2, pepsin from porcine gastric mucosa (Sus scrofa, UniProt P00791); experiment: Peptide stability in presence of pepsin at pH 2 (SDS-PAGE); type: in vitro ADME; settings: pepsin in buffer pH 2, peptide:pepsin 10:1 weight ratio, 37°C, 1, 2 and 7 days
T2 construct: pepsin from porcine gastric mucosa (Sigma-Aldrich, Deisenhofen, Germany); purchased Sigma-Aldrich, Deisenhofen, Germany; host or cells: porcine gastric mucosa
T2 sequence (P00791 60-385): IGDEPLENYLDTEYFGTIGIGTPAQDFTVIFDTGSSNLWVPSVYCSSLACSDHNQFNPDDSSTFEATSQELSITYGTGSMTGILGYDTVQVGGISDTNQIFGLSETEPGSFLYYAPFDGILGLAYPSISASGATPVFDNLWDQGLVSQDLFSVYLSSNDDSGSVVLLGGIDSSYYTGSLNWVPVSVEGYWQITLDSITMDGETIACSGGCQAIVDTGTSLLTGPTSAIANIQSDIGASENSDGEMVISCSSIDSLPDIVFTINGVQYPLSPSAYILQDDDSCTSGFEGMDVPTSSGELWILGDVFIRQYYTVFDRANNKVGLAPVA
Experimental: as §1

[5] = system: normal human dermal fibroblasts NHDF; experiment: MTS cell viability assay, NHDF; type: cell-based; settings: 24 h, at least three experiments
Text: The human malignant melanoma cell line A375 was purchased from ATCC (American Type Culture Collection, Manassas, Virginia, US) and cultured in Dulbecco's Modified Eagle Medium with GlutaMAX™ (DMEM, Gibco®, Thermo Fisher Scientific, USA) with addition of 10% FBS (Gibco®). Melanoma cell lines from primary (SBcl-2) and metastatic (WM164) lesions (kindly provided by Dr. Meenhard Herlyn, the Wistar Institute, Philadelphia, PA) and newly established primary cells MUG-Mel1 (manuscript Rinner et al., in preparation) were maintained in RPMI 1640 medium with GlutaMAX™ (Gibco®, Thermo Fisher Scientific, USA) supplemented with 2% FBS (fetal bovine serum; Gibco®). Normal human dermal fibroblasts NHDF, used as healthy control cells, purchased from PromoCell GmbH were cultured in fibroblast growth medium 2 (PromoCell GmbH). All cells were kept in a 5% CO2 atmosphere at 37°C. […]
MTS viability assay-spectroscopy—Cell proliferation was measured by using CellTiter 96® Aqueous One Solution Cell Proliferation assay (Promega). […] The quantity of the formazan product as measured by the amount of 490 nm absorbance is directly proportional to the number of living cells in culture. Data are calculated as a percentage of the control (untreated) samples and represent the average of three wells in one experiment which was repeated three times per cell line.

[6] = system: human melanoma A375 xenografts; experiment: Mouse xenografts of human melanoma A375, intratumoral peptide treatment; type: in vivo, FOXN1 mice; settings: day 1 and day 3, after first and second dose of 0.33 mg
Experimental: 20 FOXN1 mice (Charles River Laboratories, Sulzfeld, Germany) were xenotransplanted with melanoma cells A375 subcutaneously in the right flank. The tumor was grown to a maximum length and width of 3 mm before peptide treatment was started (day 0). 9 mice were treated with peptide dissolved in buffer PBS (P), 5 mice were treated with pure buffer (C+), 5 mice were untreated (C-). Treatment occurred at days 0, 1, 6, 7, 8, 11 and 12 in 7 single doses by injection into the tumor. The total dose per mouse was 1.67 mg. The single doses applied at day 0 and 1 contained 0.33 mg peptide and the residual doses contained 0.20 mg. The tumor sizes were measured with manual calipers during the treatment time span. […]
The tumor sections of peptide treated and untreated mice were evaluated for the following: tumor cell types (spindle, epithelioid, or mixed), tumor size, present/ absent necrosis or fibrosis. […] We performed Ki67 staining (Ki-67 rabbit primary antibody, 30-9; ready to use with Ventana iView DAB detection kit; Pretreatment: CC1mild; All Ventana Medical Systems, Inc, Tucson, Arizona).
All values were presented as the mean ± SEM. In vivo data were analyzed by using the unpaired student's t test, p-values less than 0.001 were considered statistically significant.

[7] = Complete blood count of xenografted mice; type: in vivo, FOXN1 mice; settings: 7 mice
Experimental: 20 FOXN1 mice (Charles River Laboratories, Sulzfeld, Germany) were xenotransplanted with melanoma cells A375 subcutaneously in the right flank. The tumor was grown to a maximum length and width of 3 mm before peptide treatment was started (day 0). […] Treatment occurred at days 0, 1, 6, 7, 8, 11 and 12 in 7 single doses by injection into the tumor. The total dose per mouse was 1.67 mg. The single doses applied at day 0 and 1 contained 0.33 mg peptide and the residual doses contained 0.20 mg. The tumor sizes were measured with manual calipers during the treatment time span. At day 15 the mice were sacrificed and the tumors were isolated and examined together with the organs of the mice after paraffin embedment and staining of four-micron sections with hematoxylin and eosin. All animal work was done in accordance with the protocol approved by the institutional animal care and use committee at the Austrian Federal Ministry for Science and Research (BMWF) (vote 66.010/0160-II/3b/2012).

[8] = Side effects after subcutaneous injection of peptide into the flank; type: in vivo, mice
Experimental: To test further potential side effects of the peptide in vivo, 3 mice were injected subcutaneously into the flank with 9 doses of peptide to a total amount of 0.68 mg per mouse over 3 weeks. Then the skin at injection site, liver, kidney, spleen, and weight were checked for abnormal changes (Supplementary Figure 1, liver and kidney).

malignant melanoma = settings: cited from earlier work; for response rates: malignant melanoma patients, ref [26], [27]
Text: Though, the specific target PS has been described to be exposed by numerous cancer types, we decided to focus on treatment of a cancer type with poor prognosis and limited therapy options, like malignant melanoma. […] In 1960s the risk to develop malignant melanoma was 1:600, whereas today it is 1:75 to 1:100 [23]. Further it exerts high tendency to metastasize and is mainly chemo-resistant. Thus the long-standing applied treatment with the methylating agent dacarbazine or its oral analogue temozolomide only yie ...

[9] = 3 mice, 9 s.c. doses, total 0.68 mg per mouse over 3 weeks
[10] = vemurafenib compared to dacarbazine, ref [30]

CC[C@H](C)[C@H](NC(=O)[C@H](CCCNC(=N)N)NC(=O)[C@@H](NC(=O)[C@H](CCCNC(=N)N)NC(=O)[C@H](CCCNC(=N)N)NC(=O)[C@@H]1CCCN1C(=O)[C@H](CCCNC(=N)N)NC(=O)[C@H](CCCNC(=N)N)NC(=O)[C@@H](NC(=O)[C@H](CCCNC(=N)N)NC(=O)[C@@H](NC(=O)[C@H](CCCNC(=N)N)NC(=O)[C@H](Cc1c[nH]c2ccccc12)NC(=O)[C@@H]1CCCN1)[C@@H](C)CC)[C@@H](C)CC)[C@@H](C)CC)C(=O)N[C@@H](CCCNC(=N)N)C(=O)N[C@@H](Cc1c[nH]c2ccccc12)C(=O)N1CCC[C@H]1C(N)=O [R-DIM-P-LF11-334] (H-PWRIRIRRPRRIRIRWP-NH2)
incubation time in FBS before amount of peptide is reduced [1]: more than 1 day | peptide remaining in FBS after 6 days [1]: no peptide was detectable | period of stability / complete activity in presence of FBS (blood components) [1]: 24 h | fraction of peptide left in FBS after 2 days ([1]; data not shown): about 1/3 | degradation of peptide by BSA [2]: no degrading effect | binding of the peptide to BSA [3]: approximately 75% | cleavage in presence of pepsin [4]: no visible cleavage | LC50 MTS [5]: > 90 µM | local reaction at tumor after intratumoral injection [6]: in some cases a wound developed | Bas ([7]; +P): 0.68% | EVB-CV ([7]; +P): 19.44% | EVB-SD ([7]; +P): 35.95 fL | MERY ([7]; +P): 0.34% | MTHR ([7]; +P): 8.13% | Medn ([7]; +P): 4.14 fL | Mod ([7]; +P): 3.05 fL | Other (leukocytes) ([7]; +P): 2.30% | TKT ([7]; +P): 0.43% | μERY ([7]; +P): 16.00% | μTHR ([7]; +P): 16.54% | Mon ([7]; +P, normal range 1-5): 4.46% | MPV ([7]; +P, normal range 3-8): 5.91 fL | TVB ([7]; +P, normal range 6-10): 10.10 | Erythrocytes ERY ([7]; +P, normal range 6-11): 8.53 10^6/μl | MCH ([7]; +P, normal range 13-22): 16.5 pg | Hb ([7]; +P, normal range 14-18): 14.06 g/dL | MCHC ([7]; +P, normal range 24-40): 32.85 g/dL | Hct ([7]; +P, normal range 35-45): 42.81% | MCV ([7]; +P, normal range 35-50): 50.18 fL | Lym ([7]; +P, normal range 70-81, marked ↑): 82.28% | Thrombocytes THR ([7]; +P, normal range 100-600, marked ↑): 705.00 10^3/μl | Eos ([7]; +P, normal range <10): 1.33% | Leukocytes LEU ([7]; peptide treated xenograft mice (+P), normal range 4-10): 6.13 10^3/μl | inflammation after subcutaneous injection [8, 9]: No inflammation occurred | organs (skin at injection site, liver, kidney, spleen) [8, 9]: unsuspicious | weight gain [8, 9]: normal | effect in liver and kidney (H&E sections) ([8]; s.c. treatment, 9 doses, Supplementary Figure 1): No effect

CN(C)/N=N/c1[nH]cnc1C(N)=O [dacarbazine]
response rates (malignant melanoma): about 15% | percentage of 5 years survival, solely dacarbazine (malignant melanoma; ref [29]): 8% | median survival (malignant melanoma; [10]): 9.7 months

Cn1nnc2c(C(N)=O)ncn2c1=O [temozolomide]
response rates (malignant melanoma): about 15%

CCCS(=O)(=O)Nc1ccc(F)c(C(=O)c2c[nH]c3ncc(-c4ccc(Cl)cc4)cc23)c1F [vemurafenib]
median survival (malignant melanoma; [10]): 13.6 months

ipilimumab: immunotherapy approved by the FDA in 2011, blocks the T-cell inhibition of CTLA-4
median survival (malignant melanoma; melanoma patients, ref [28]): 12.7 months | percentage of 5 years survival, in combination with dacarbazine (malignant melanoma; patients treated with ipilimumab in combination with dacarbazine, ref [29]): 18%
